# Species on record: Rattus norvegicus
# Test: DrugMatrix - Regimen: Daily Repeat
# Format: toxicity, organism-based, Sprague-Dawley
# Set-up: regimen Daily Repeat, gender Male, age 6-8 weeks
# Conditions: in vivo, po, route oral GAVAGE, vehicle 100 % SALINE; for ABSOLUTE BASOPHIL / ABSOLUTE EOSINOPHIL / ABSOLUTE LYMPHOCYTE / ABSOLUTE MONOCYTE / ABSOLUTE SEGMENTED NEUTROPHIL / BASOPHIL / EOSINOPHIL / ERYTHROCYTE COUNT / HEMATOCRIT / HEMOGLOBIN / LEUKOCYTE COUNT / LYMPHOCYTE / MEAN CORPUSCULAR HEMOGLOBIN / MEAN CORPUSCULAR HEMOGLOBIN CONCENTRATION / MEAN CORPUSCULAR VOLUME / MONOCYTE / NEUTROPHIL / NUCLEATED RED BLOOD CELLS / PLATELET COUNT: tissue Blood; for ALANINE AMINOTRANSFERASE / ALBUMIN / ALKALINE PHOSPHATASE / ASPARTATE AMINOTRANSFERASE / BLOOD UREA NITROGEN / CARBON DIOXIDE / CHLORIDE / CHOLESTEROL / CREATINE PHOSPHOKINASE / CREATININE / GLUCOSE / LACTATE DEHYDROGENASE / LIPASE / PHOSPHORUS / POTASSIUM / SODIUM / TOTAL BILIRUBIN / TOTAL PROTEIN / URIC ACID: tissue Plasma
# [1] = 0 mg/kg, 72 h, dose level Control, time 3 day
# [2] = 0 mg/kg, 120 h, dose level Control, time 5 day
# [3] = 1200 mg/kg, 72 h, dose level High, time 3 day
# [4] = 1200 mg/kg, 120 h, dose level High, time 5 day
smiles,measurement,setting,value
CC(=O)OCC(CCn1cnc2cnc(N)nc21)COC(C)=O [FAMCICLOVIR],ABSOLUTE BASOPHIL,[1],0 CELLS/uL
same,ABSOLUTE EOSINOPHIL,[1],37 CELLS/uL
same,ABSOLUTE LYMPHOCYTE,[1],12359.33 CELLS/uL
same,ABSOLUTE MONOCYTE,[1],122.67 CELLS/uL
same,ABSOLUTE SEGMENTED NEUTROPHIL,[1],847.67 CELLS/uL
same,BASOPHIL,[1],0%
same,EOSINOPHIL,[1],0.33%
same,ERYTHROCYTE COUNT,[1],5.75 x10E6/uL
same,HEMATOCRIT,[1],36.08%
same,HEMOGLOBIN,[1],14.07 G/DL
same,LEUKOCYTE COUNT,[1],13.37 x10E3/uL
same,LYMPHOCYTE,[1],92.5%
same,MEAN CORPUSCULAR HEMOGLOBIN,[1],24.47 pg
same,MEAN CORPUSCULAR HEMOGLOBIN CONCENTRATION,[1],38.98 G/DL
same,MEAN CORPUSCULAR VOLUME,[1],62.78 fL
same,MONOCYTE,[1],1%
same,NEUTROPHIL,[1],6.17%
same,NUCLEATED RED BLOOD CELLS,[1],0.17 /100WBC
same,PLATELET COUNT,[1],1202.17 x10E3/uL
same,ALANINE AMINOTRANSFERASE,[1],50.67 u/L
same,ALBUMIN,[1],4.13 G/DL
same,ALKALINE PHOSPHATASE,[1],356.33 u/L
same,ASPARTATE AMINOTRANSFERASE,[1],78.17 u/L
same,BLOOD UREA NITROGEN,[1],14.17 mg/dL
same,CARBON DIOXIDE,[1],31.33 mmol/L
same,CHLORIDE,[1],98.5 MEQ/L
same,CHOLESTEROL,[1],76.5 mg/dL
same,CREATINE PHOSPHOKINASE,[1],248.33 u/L
same,CREATININE,[1],0.2 mg/dL
same,GLUCOSE,[1],144 mg/dL
same,LACTATE DEHYDROGENASE,[1],107 u/L
same,LIPASE,[1],9.83 u/L
same,PHOSPHORUS,[1],12.8 mg/dL
same,POTASSIUM,[1],6.75 MEQ/L
same,SODIUM,[1],142 MEQ/L
same,TOTAL BILIRUBIN,[1],0.18 mg/dL
same,TOTAL PROTEIN,[1],5.98 G/DL
same,URIC ACID,[1],1.42 mg/dL
same,ABSOLUTE BASOPHIL,[2],0 CELLS/uL
same,ABSOLUTE EOSINOPHIL,[2],0 CELLS/uL
same,ABSOLUTE LYMPHOCYTE,[2],8681.17 CELLS/uL
same,ABSOLUTE MONOCYTE,[2],79.83 CELLS/uL
same,ABSOLUTE SEGMENTED NEUTROPHIL,[2],689 CELLS/uL
same,BASOPHIL,[2],0%
same,EOSINOPHIL,[2],0%
same,ERYTHROCYTE COUNT,[2],5.49 x10E6/uL
same,HEMATOCRIT,[2],33.55%
same,HEMOGLOBIN,[2],13.1 G/DL
same,LEUKOCYTE COUNT,[2],9.45 x10E3/uL
same,LYMPHOCYTE,[2],92.33%
same,MEAN CORPUSCULAR HEMOGLOBIN,[2],23.92 pg
same,MEAN CORPUSCULAR HEMOGLOBIN CONCENTRATION,[2],39.07 G/DL
same,MEAN CORPUSCULAR VOLUME,[2],61.22 fL
same,MONOCYTE,[2],0.67%
same,NEUTROPHIL,[2],7%
same,NUCLEATED RED BLOOD CELLS,[2],0.17 /100WBC
same,PLATELET COUNT,[2],1001.17 x10E3/uL
same,ALANINE AMINOTRANSFERASE,[2],49.33 u/L
same,ALBUMIN,[2],4.07 G/DL
same,ALKALINE PHOSPHATASE,[2],300.33 u/L
same,ASPARTATE AMINOTRANSFERASE,[2],83.5 u/L
same,BLOOD UREA NITROGEN,[2],16 mg/dL
same,CARBON DIOXIDE,[2],29.67 mmol/L
same,CHLORIDE,[2],100.5 MEQ/L
same,CHOLESTEROL,[2],74.33 mg/dL
same,CREATINE PHOSPHOKINASE,[2],489.67 u/L
same,CREATININE,[2],0.35 mg/dL
same,GLUCOSE,[2],151 mg/dL
same,LACTATE DEHYDROGENASE,[2],133.67 u/L
same,LIPASE,[2],11.17 u/L
same,PHOSPHORUS,[2],10.88 mg/dL
same,POTASSIUM,[2],5.5 MEQ/L
same,SODIUM,[2],145.7 MEQ/L
same,TOTAL BILIRUBIN,[2],0.2 mg/dL
same,TOTAL PROTEIN,[2],6.05 G/DL
same,URIC ACID,[2],0.68 mg/dL
same,ABSOLUTE BASOPHIL,[3],0 CELLS/uL
same,ABSOLUTE EOSINOPHIL,[3],0 CELLS/uL
same,ABSOLUTE LYMPHOCYTE,[3],7020.67 CELLS/uL
same,ABSOLUTE MONOCYTE,[3],111 CELLS/uL
same,ABSOLUTE SEGMENTED NEUTROPHIL,[3],835 CELLS/uL
same,BASOPHIL,[3],0%
same,EOSINOPHIL,[3],0%
same,ERYTHROCYTE COUNT,[3],5.23 x10E6/uL
same,HEMATOCRIT,[3],33.07%
same,HEMOGLOBIN,[3],13.03 G/DL
same,LEUKOCYTE COUNT,[3],7.97 x10E3/uL
same,LYMPHOCYTE,[3],88%
same,MEAN CORPUSCULAR HEMOGLOBIN,[3],24.97 pg
same,MEAN CORPUSCULAR HEMOGLOBIN CONCENTRATION,[3],39.4 G/DL
same,MEAN CORPUSCULAR VOLUME,[3],63.33 fL
same,MONOCYTE,[3],1.33%
same,NEUTROPHIL,[3],10.67%
same,NUCLEATED RED BLOOD CELLS,[3],0 /100WBC
same,PLATELET COUNT,[3],1079.67 x10E3/uL
same,ALANINE AMINOTRANSFERASE,[3],49 u/L
same,ALBUMIN,[3],4.07 G/DL
same,ALKALINE PHOSPHATASE,[3],334 u/L
same,ASPARTATE AMINOTRANSFERASE,[3],80.33 u/L
same,BLOOD UREA NITROGEN,[3],14.33 mg/dL
same,CARBON DIOXIDE,[3],29.33 mmol/L
same,CHLORIDE,[3],100.67 MEQ/L
same,CHOLESTEROL,[3],77.33 mg/dL
same,CREATINE PHOSPHOKINASE,[3],294 u/L
same,CREATININE,[3],0.2 mg/dL
same,GLUCOSE,[3],160 mg/dL
same,LACTATE DEHYDROGENASE,[3],118.67 u/L
same,LIPASE,[3],10 u/L
same,PHOSPHORUS,[3],11.4 mg/dL
same,POTASSIUM,[3],5.59 MEQ/L
same,SODIUM,[3],144.23 MEQ/L
same,TOTAL BILIRUBIN,[3],0.17 mg/dL
same,TOTAL PROTEIN,[3],5.83 G/DL
same,URIC ACID,[3],0.93 mg/dL
same,ABSOLUTE BASOPHIL,[4],0 CELLS/uL
same,ABSOLUTE EOSINOPHIL,[4],0 CELLS/uL
same,ABSOLUTE LYMPHOCYTE,[4],9833.67 CELLS/uL
same,ABSOLUTE MONOCYTE,[4],110.67 CELLS/uL
same,ABSOLUTE SEGMENTED NEUTROPHIL,[4],822.33 CELLS/uL
same,BASOPHIL,[4],0%
same,EOSINOPHIL,[4],0%
same,ERYTHROCYTE COUNT,[4],5.64 x10E6/uL
same,HEMATOCRIT,[4],35.27%
same,HEMOGLOBIN,[4],13.9 G/DL
same,LEUKOCYTE COUNT,[4],10.77 x10E3/uL
same,LYMPHOCYTE,[4],91.33%
same,MEAN CORPUSCULAR HEMOGLOBIN,[4],24.73 pg
same,MEAN CORPUSCULAR HEMOGLOBIN CONCENTRATION,[4],39.43 G/DL
same,MEAN CORPUSCULAR VOLUME,[4],62.77 fL
same,MONOCYTE,[4],1%
same,NEUTROPHIL,[4],7.67%
same,NUCLEATED RED BLOOD CELLS,[4],0.33 /100WBC
same,PLATELET COUNT,[4],1147.67 x10E3/uL
same,ALANINE AMINOTRANSFERASE,[4],54 u/L
same,ALBUMIN,[4],4.03 G/DL
same,ALKALINE PHOSPHATASE,[4],380.67 u/L
same,ASPARTATE AMINOTRANSFERASE,[4],82.33 u/L
same,BLOOD UREA NITROGEN,[4],13 mg/dL
same,CARBON DIOXIDE,[4],29.67 mmol/L
same,CHLORIDE,[4],100.67 MEQ/L
same,CHOLESTEROL,[4],75.67 mg/dL
same,CREATINE PHOSPHOKINASE,[4],286 u/L
same,CREATININE,[4],0.31 mg/dL
same,GLUCOSE,[4],147.33 mg/dL
same,LACTATE DEHYDROGENASE,[4],106 u/L
same,LIPASE,[4],9.33 u/L
same,PHOSPHORUS,[4],11.2 mg/dL
same,POTASSIUM,[4],5.79 MEQ/L
same,SODIUM,[4],145.73 MEQ/L
same,TOTAL BILIRUBIN,[4],0.17 mg/dL
same,TOTAL PROTEIN,[4],5.77 G/DL
same,URIC ACID,[4],0.73 mg/dL

# Source: ChEMBL document CHEMBL3885881, “DrugMatrix”
